Assay results taken from ChEMBL document CHEMBL1148834, “A novel diketo phosphonic acid that exhibits specific, strand-transfer inhibition of HIV integrase and anti-HIV activity” (Bioorg Med Chem Lett, 2007).

Experiments:
[1] = system: Human immunodeficiency virus 1; assay: Antiviral activity against HIV1 TEK1 in PBMC; format: functional, organism-based; details: Human immunodeficiency virus 1, TEK1
[2] = system: Human immunodeficiency virus 1; assay: Antiviral activity against HIV1 NL4-3 in PBMC; format: functional, organism-based; details: Human immunodeficiency virus 1, NL4-3
[3] = Cytotoxicity against PBMC cells; format: cell-based; details: human
[4] = Therapeutic index, ratio of CC50 for PBMC to IC50 for HIV1 TEK1; details: read-out: Ratio CC50/IC50
[5] = Therapeutic index, ratio of CC50 for PBMC to IC50 for HIV1 NL4-3; details: read-out: Ratio CC50/IC50
[6] = Inhibition of HIV integrase 3'-processing activity by magnesium chloride-based assay; set-up: species or system Human immunodeficiency virus
[7] = Inhibition of HIV integrase strand transfer activity by magnesium chloride-based assay; set-up: species or system Human immunodeficiency virus

| Structure (SMILES) | IC50 [1] [µM] | IC50 [2] [µM] | CC50 [3] [µM] | selectivity ratio [4] | selectivity ratio [5] | IC50 [6] [µM] | IC50 [7] [µM] |
| --- | --- | --- | --- | --- | --- | --- | --- |
| O=C(/C=C(\O)P(=O)(O)O)c1cc(OCc2ccccc2)cc(OCc2ccccc2)c1 | 8.1 | 11.8 | 46.9 | 5.8 | 4 |  |  |
| O=C(/C=C(\O)P(=O)(O)O)c1cn(Cc2ccccc2)c(=O)n(Cc2ccccc2)c1=O | 4 | 3.2 | > 200 | > 50 | > 62 | > 333 | 20.2 |
